Assay results taken from ChEMBL document CHEMBL3885881, “DrugMatrix”.

Organism: Rattus norvegicus
Assay: DrugMatrix - Regimen: Daily Repeat
Format: toxicity, organism-based, Sprague-Dawley
Design: regimen Daily Repeat, gender Male, age 6-8 weeks
Conditions: in vivo, po, 25 mg/kg, route oral GAVAGE, dose level Low, […]; for ABSOLUTE BASOPHIL / ABSOLUTE EOSINOPHIL / ABSOLUTE LYMPHOCYTE / ABSOLUTE MONOCYTE / ABSOLUTE SEGMENTED NEUTROPHIL / BASOPHIL / EOSINOPHIL / ERYTHROCYTE COUNT / HEMATOCRIT / HEMOGLOBIN / LEUKOCYTE COUNT / LYMPHOCYTE / MEAN CORPUSCULAR HEMOGLOBIN / MEAN CORPUSCULAR HEMOGLOBIN CONCENTRATION / MEAN CORPUSCULAR VOLUME / MONOCYTE / NEUTROPHIL / NUCLEATED RED BLOOD CELLS / PLATELET COUNT: tissue Blood; for ALANINE AMINOTRANSFERASE / ALBUMIN / ALKALINE PHOSPHATASE / ASPARTATE AMINOTRANSFERASE / BLOOD UREA NITROGEN / CARBON DIOXIDE / CHLORIDE / CHOLESTEROL / CREATINE PHOSPHOKINASE / CREATININE / GLUCOSE / LACTATE DEHYDROGENASE / LIPASE / PHOSPHORUS / POTASSIUM / SODIUM / TOTAL BILIRUBIN / TOTAL PROTEIN / URIC ACID: tissue Plasma

CN(C)CCCN1c2ccccc2Sc2ccccc21 [PROMAZINE]
ABSOLUTE BASOPHIL (72 h, time 3 day): 0 CELLS/uL | ABSOLUTE EOSINOPHIL (72 h, time 3 day): 145.33 CELLS/uL | ABSOLUTE LYMPHOCYTE (72 h, time 3 day): 11142.33 CELLS/uL | ABSOLUTE MONOCYTE (72 h, time 3 day): 92 CELLS/uL | ABSOLUTE SEGMENTED NEUTROPHIL (72 h, time 3 day): 1153.67 CELLS/uL | BASOPHIL (72 h, time 3 day): 0% | EOSINOPHIL (72 h, time 3 day): 0.67% | ERYTHROCYTE COUNT (72 h, time 3 day): 5.31 x10E6/uL | HEMATOCRIT (72 h, time 3 day): 33.93% | HEMOGLOBIN (72 h, time 3 day): 13.5 G/DL | LEUKOCYTE COUNT (72 h, time 3 day): 12.53 x10E3/uL | LYMPHOCYTE (72 h, time 3 day): 87.67% | MEAN CORPUSCULAR HEMOGLOBIN (72 h, time 3 day): 25.47 pg | MEAN CORPUSCULAR HEMOGLOBIN CONCENTRATION (72 h, time 3 day): 39.77 G/DL | MEAN CORPUSCULAR VOLUME (72 h, time 3 day): 63.93 fL | MONOCYTE (72 h, time 3 day): 1.33% | NEUTROPHIL (72 h, time 3 day): 10.33% | NUCLEATED RED BLOOD CELLS (72 h, time 3 day): 0.67 /100WBC | PLATELET COUNT (72 h, time 3 day): 1124.33 x10E3/uL | ALANINE AMINOTRANSFERASE (72 h, time 3 day): 95 u/L | ALBUMIN (72 h, time 3 day): 4.03 G/DL | ALKALINE PHOSPHATASE (72 h, time 3 day): 542.33 u/L | ASPARTATE AMINOTRANSFERASE (72 h, time 3 day): 104 u/L | BLOOD UREA NITROGEN (72 h, time 3 day): 14 mg/dL | CARBON DIOXIDE (72 h, time 3 day): 32 mmol/L | CHLORIDE (72 h, time 3 day): 101.67 MEQ/L | CHOLESTEROL (72 h, time 3 day): 76.67 mg/dL | CREATINE PHOSPHOKINASE (72 h, time 3 day): 359.33 u/L | CREATININE (72 h, time 3 day): 0.17 mg/dL | GLUCOSE (72 h, time 3 day): 185.67 mg/dL | LACTATE DEHYDROGENASE (72 h, time 3 day): 147.67 u/L | LIPASE (72 h, time 3 day): 9.33 u/L | PHOSPHORUS (72 h, time 3 day): 12.17 mg/dL | POTASSIUM (72 h, time 3 day): 6.17 MEQ/L | SODIUM (72 h, time 3 day): 143.27 MEQ/L | TOTAL BILIRUBIN (72 h, time 3 day): 0.17 mg/dL | TOTAL PROTEIN (72 h, time 3 day): 5.57 G/DL | URIC ACID (72 h, time 3 day): 1.23 mg/dL | ABSOLUTE BASOPHIL (120 h, time 5 day): 0 CELLS/uL | ABSOLUTE EOSINOPHIL (120 h, time 5 day): 84.33 CELLS/uL | ABSOLUTE LYMPHOCYTE (120 h, time 5 day): 7389.33 CELLS/uL | ABSOLUTE MONOCYTE (120 h, time 5 day): 65.33 CELLS/uL | ABSOLUTE SEGMENTED NEUTROPHIL (120 h, time 5 day): 894.33 CELLS/uL | BASOPHIL (120 h, time 5 day): 0% | EOSINOPHIL (120 h, time 5 day): 1% | ERYTHROCYTE COUNT (120 h, time 5 day): 5.37 x10E6/uL | HEMATOCRIT (120 h, time 5 day): 34.2% | HEMOGLOBIN (120 h, time 5 day): 13.47 G/DL | LEUKOCYTE COUNT (120 h, time 5 day): 8.43 x10E3/uL | LYMPHOCYTE (120 h, time 5 day): 88.67% | MEAN CORPUSCULAR HEMOGLOBIN (120 h, time 5 day): 25.1 pg | MEAN CORPUSCULAR HEMOGLOBIN CONCENTRATION (120 h, time 5 day): 39.4 G/DL | MEAN CORPUSCULAR VOLUME (120 h, time 5 day): 63.67 fL | MONOCYTE (120 h, time 5 day): 0.67% | NEUTROPHIL (120 h, time 5 day): 9.67% | NUCLEATED RED BLOOD CELLS (120 h, time 5 day): 0.33 /100WBC | PLATELET COUNT (120 h, time 5 day): 1228.67 x10E3/uL | ALANINE AMINOTRANSFERASE (120 h, time 5 day): 54.33 u/L | ALBUMIN (120 h, time 5 day): 4.17 G/DL | ALKALINE PHOSPHATASE (120 h, time 5 day): 463.67 u/L | ASPARTATE AMINOTRANSFERASE (120 h, time 5 day): 73.33 u/L | BLOOD UREA NITROGEN (120 h, time 5 day): 15 mg/dL | CARBON DIOXIDE (120 h, time 5 day): 28.33 mmol/L | CHLORIDE (120 h, time 5 day): 103.33 MEQ/L | CHOLESTEROL (120 h, time 5 day): 61.67 mg/dL | CREATINE PHOSPHOKINASE (120 h, time 5 day): 324.67 u/L | CREATININE (120 h, time 5 day): 0.27 mg/dL | GLUCOSE (120 h, time 5 day): 188.67 mg/dL | LACTATE DEHYDROGENASE (120 h, time 5 day): 154 u/L | LIPASE (120 h, time 5 day): 10.33 u/L | PHOSPHORUS (120 h, time 5 day): 12.03 mg/dL | POTASSIUM (120 h, time 5 day): 5.86 MEQ/L | SODIUM (120 h, time 5 day): 145.6 MEQ/L | TOTAL BILIRUBIN (120 h, time 5 day): 0.23 mg/dL | TOTAL PROTEIN (120 h, time 5 day): 5.97 G/DL | URIC ACID (120 h, time 5 day): 1.8 mg/dL
